Laboratory results as given in ChEMBL document CHEMBL4196027, “Structure-based discovery of cytotoxic dimeric tetrahydroxanthones as potential topoisomerase I inhibitors from a marine-derived fungus” (Eur J Med Chem, 2018).

How the values were obtained:
[1] = Cytotoxicity against human HO8910 cells assessed as reduction in cell proliferation after 48 hrs by MTT assay; format: functional, cell-based; details: Homo sapiens, HO-8910, 48 h
MGC-803 [2] = experiment: Induction of apoptosis in human MGC803 cells assessed as late apoptotic cells at 6.25 uM after 24 hrs by Annexin V-FITC/propidium iodide staining based flow cytometry (reference value: 0.12%); format: functional
MGC-803 [3] = experiment: Induction of apoptosis in human MGC803 cells assessed as late apoptotic cells at 12.5 uM after 24 hrs by Annexin V-FITC/propidium iodide staining based flow cytometry (reference value: 0.12%); format: functional
MGC-803 [4] = experiment: Induction of apoptosis in human MGC803 cells assessed as early apoptotic cells at 25 uM after 24 hrs by Annexin V-FITC/propidium iodide staining based flow cytometry (reference value: 0.56%); format: functional
MGC-803 [5] = experiment: Induction of necrosis in human MGC803 cells at 12.5 uM after 48 hrs by Hoechst 33342/propidium iodide staining based flow cytometry (reference value: 3.73%); format: functional
MGC-803 [6] = experiment: Cell cycle arrest in human MGC803 cells assessed as accumulation at G2/M phase at 25 uM after 24 hrs by propidium iodide staining based flow cytometry (reference value: 9.15%); format: functional
MGC-803 [7] = experiment: Induction of apoptosis in human MGC803 cells assessed as necrotic cells at 25 uM after 24 hrs by Annexin V-FITC/propidium iodide staining based flow cytometry (reference value: 0.92%); format: functional
MGC-803 [8] = experiment: Cell cycle arrest in human MGC803 cells assessed as accumulation at G0/G1 phase at 25 uM after 24 hrs by propidium iodide staining based flow cytometry (reference value: 59.68%); format: functional
MGC-803 [9] = experiment: Cell cycle arrest in human MGC803 cells assessed as accumulation at G0/G1 phase at 12.5 uM after 24 hrs by propidium iodide staining based flow cytometry (reference value: 59.68%); format: functional
MGC-803 [10] = experiment: Induction of apoptosis in human MGC803 cells assessed as necrotic cells at 6.25 uM after 24 hrs by Annexin V-FITC/propidium iodide staining based flow cytometry (reference value: 0.92%); format: functional
MGC-803 [11] = experiment: Cell cycle arrest in human MGC803 cells assessed as accumulation at G2/M phase at 6.25 uM after 24 hrs by propidium iodide staining based flow cytometry (reference value: 9.15%); format: functional
MGC-803 [12] = experiment: Induction of apoptosis in human MGC803 cells assessed as necrotic cells at 12.5 uM after 24 hrs by Annexin V-FITC/propidium iodide staining based flow cytometry (reference value: 0.92%); format: functional
MGC-803 [13] = experiment: Cell cycle arrest in human MGC803 cells assessed as accumulation at G2/M phase at 12.5 uM after 24 hrs by propidium iodide staining based flow cytometry (reference value: 9.15%); format: functional
HL-60 = experiment: Cytotoxicity against human HL60 cells assessed as reduction in cell proliferation after 48 hrs by MTT assay; format: functional, cell-based; details: Homo sapiens, HL-60, 48 h
K562 = experiment: Cytotoxicity against human K562 cells assessed as reduction in cell proliferation after 48 hrs by MTT assay; format: functional, cell-based; details: Homo sapiens, K562, 48 h
MGC-803 [14] = experiment: Cytotoxicity against human MGC803 cells assessed as reduction in cell proliferation after 48 hrs by MTT assay; format: functional, cell-based; details: Homo sapiens, MGC-803, 48 h
HCT-116 = experiment: Cytotoxicity against human HCT116 cells assessed as reduction in cell proliferation after 48 hrs by MTT assay; format: functional, cell-based; details: Homo sapiens, HCT-116, 48 h
MGC-803 [15] = experiment: Induction of apoptosis in human MGC803 cells assessed as early apoptotic cells at 6.25 uM after 24 hrs by Annexin V-FITC/propidium iodide staining based flow cytometry (reference value: 0.56%); format: functional
HEK293 = experiment: Cytotoxicity against HEK293 cells assessed as reduction in cell proliferation after 48 hrs by MTT assay; format: cell-based; details: Homo sapiens, HEK293, 48 h
MGC-803 [16] = experiment: Induction of necrosis in human MGC803 cells at 6.25 uM after 48 hrs by Hoechst 33342/propidium iodide staining based flow cytometry (reference value: 3.73%); format: functional
MGC-803 [17] = experiment: Induction of necrosis in human MGC803 cells at 25 uM after 48 hrs by Hoechst 33342/propidium iodide staining based flow cytometry (reference value: 3.73%); format: functional
MGC-803 [18] = experiment: Cell cycle arrest in human MGC803 cells assessed as accumulation at S phase at 25 uM after 24 hrs by propidium iodide staining based flow cytometry (reference value: 31.17%); format: functional
MGC-803 [19] = experiment: Induction of apoptosis in human MGC803 cells assessed as late apoptotic cells at 25 uM after 24 hrs by Annexin V-FITC/propidium iodide staining based flow cytometry (reference value: 0.12%); format: functional
MGC-803 [20] = experiment: Cell cycle arrest in human MGC803 cells assessed as accumulation at S phase at 12.5 uM after 24 hrs by propidium iodide staining based flow cytometry (reference value: 31.17%); format: functional
MGC-803 [21] = experiment: Cell cycle arrest in human MGC803 cells assessed as accumulation at G0/G1 phase at 6.25 uM after 24 hrs by propidium iodide staining based flow cytometry (reference value: 59.68%); format: functional
A549 = experiment: Cytotoxicity against human A549 cells assessed as reduction in cell proliferation after 48 hrs by MTT assay; format: functional, cell-based; details: Homo sapiens, A549, 48 h
MGC-803 [22] = experiment: Induction of apoptosis in human MGC803 cells assessed as early apoptotic cells at 12.5 uM after 24 hrs by Annexin V-FITC/propidium iodide staining based flow cytometry (reference value: 0.56%); format: functional
NCI-H1975 = experiment: Cytotoxicity against human NCI-H1975 cells assessed as reduction in cell proliferation after 48 hrs by MTT assay; format: functional, cell-based; details: Homo sapiens, NCI-H1975, 48 h
MGC-803 [23] = experiment: Cell cycle arrest in human MGC803 cells assessed as accumulation at S phase at 6.25 uM after 24 hrs by propidium iodide staining based flow cytometry (reference value: 31.17%); format: functional

Compound: COC(=O)[C@@]12Oc3cc(C)c(-c4ccc5c(c4O)C(=O)C4=C(O)C[C@H](C)[C@@H](O)[C@]4(C(=O)OC)O5)c(O)c3C(=O)C1=C(O)CC[C@H]2O (stereo in doubt; 1)
- IC50 [1]: 9.6 µM
- Activity (MGC-803 [2]): 0.17%
- Activity (MGC-803 [3]): 0.56%
- Activity (MGC-803 [4]): 0.26%
- Activity (MGC-803 [5]): 19.29%
- Activity (MGC-803 [6]): 47.43%
- Activity (MGC-803 [7]): 4.06%
- Activity (MGC-803 [8]): 29.67%
- Activity (MGC-803 [9]): 25.7%
- Activity (MGC-803 [10]): 1.88%
- Activity (MGC-803 [11]): 35.33%
- Activity (MGC-803 [12]): 1.46%
- Activity (MGC-803 [13]): 37.32%
- IC50 (HL-60): 13.4 µM
- IC50 (K562): 20.9 µM
- IC50 (MGC-803 [14]): 4.6 µM
- IC50 (HCT-116): 16.2 µM
- Activity (MGC-803 [15]): 0.26%
- IC50 (HEK293): > 50 µM
- Activity (MGC-803 [16]): 6.97%
- Activity (MGC-803 [17]): 31.33%
- Activity (MGC-803 [18]): 22.9%
- Activity (MGC-803 [19]): 0.59%
- Activity (MGC-803 [20]): 36.98%
- Activity (MGC-803 [21]): 33.65%
- IC50 (A549): 17.8 µM
- Activity (MGC-803 [22]): 0.42%
- IC50 (NCI-H1975): 9.8 µM
- Activity (MGC-803 [23]): 31.02%
